Key:
[1] = system: E. coli ARC2687; experiment: MIC, broth microdilution (CLSI); format: cell-based; settings: Escherichia coli, ARC2687; combination at 1:2 ratio cefpodoxime:ETX1317, MIC of CPD
Experimental: (§1) MICs were determined utilizing a 1:2 ratio of cefpodoxime:ETX1317. […] The isolates utilized in the present study (Table 1) were broadly insensitive to CPD, presumably due to the presence of ESBLs and carbapenemases expressed in these strains. The addition of ETX1317 restored CPD activity to ≤1 μg/mL across all the tested isolates.
(§2) The MIC of each isolate was determined using the broth microdilution method following CLSI guidelines of document M07-A7 (CLSI M07-A7).

[2] = system: E. coli ARC4419; experiment: MIC, broth microdilution (CLSI); format: cell-based; settings: Escherichia coli, combination at 1:2 ratio cefpodoxime:ETX1317, MIC of CPD
Experimental: as §1, §2

[3] = system: E. coli NMC101; experiment: MIC, broth microdilution (CLSI); format: cell-based; settings: Escherichia coli, combination at 1:2 ratio cefpodoxime:ETX1317, MIC of CPD
Experimental: as §1, §2

[4] = system: K. pneumoniae ARC4420; experiment: MIC, broth microdilution (CLSI); format: cell-based; settings: Klebsiella pneumoniae, combination at 1:2 ratio cefpodoxime:ETX1317, MIC of CPD
Experimental: as §1, §2

[5] = system: K. pneumoniae ARC4486; experiment: MIC, broth microdilution (CLSI); format: cell-based; settings: Klebsiella pneumoniae, combination at 1:2 ratio cefpodoxime:ETX1317, MIC of CPD
Experimental: as §1, §2

[6] = system: K. pneumoniae ARC4488; experiment: MIC, broth microdilution (CLSI); format: cell-based; settings: Klebsiella pneumoniae, ARC4488; combination at 1:2 ratio cefpodoxime:ETX1317, MIC of CPD
Experimental: as §1, §2

[7] = system: K. pneumoniae ARC5118; experiment: MIC, broth microdilution (CLSI); format: cell-based; settings: Klebsiella pneumoniae, ARC5118; combination at 1:2 ratio cefpodoxime:ETX1317, MIC of CPD
Experimental: as §1, §2

[8] = Human PK prediction (allometric scaling); settings: for CL/F / V/F: predicted human
Excerpt: The methodology utilized for prediction of human PK of ETX1317 was consistent with methods used in support of similar chemotypes such as avibactam and ETX2514.[43] Human predictions for volume of distribution (Vd,ss) and clearance (CL) were within 2-fold of observed mean data obtained in Phase 1 studies, with renal clearance as the predominant clearance mechanism.[44],[45] Pharmacokinetic and excretion data from rats, dogs, and monkeys were used collectively for the projection of ETX1317 PK. Liver S9 incubations were also performed across all species (including human) to confirm consistent conversion of ETX0282 to ETX1317 at projected dose levels of ETX0282.[42] Human PK prediction of ETX1317 was completed using single species allometry for volume of distribution from dog PK and dog and monkey single species scaling using liver blood flow to predict non-renal clearance (CLNR).[46] […] While urinary excretion of ETX1317 was lower in dogs relative to monkeys and rats, human renal clearance (CLR) was predicted using dog-human renal correlation,[47] as this method has been highly predictive for compounds that are generally eliminated via renal excretion. The elimination half-life was estimated based upon the combined use of predicted parameters for clearance and volume of distribution, where T1/2 = ln 2*Vd,ss/CLtotal. Allometric scaling predicted human Vd,ss of 0.35 L/kg.
(§3) Based upon the non-clinical PK data, a range of 60–80% bioavailability and a moderate absorption rate of 0.5–1.0 h^–1 have been considered for humans. In consideration of these predicted parameters, mean percent fT > CT of 1 μg/mL (2× MIC of 0.5 μg/mL) estimates for a 500 mg ETX1317 equiv q12h dose of ETX0282 are summarized in Table S3.

[9] = Stability in liver microsomes; format: in vitro ADME
Experimental: as §3

Compound `CC1=C[C@@H](C(N)=O)N2C[C@@H]1N(O[C@H](F)C(=O)O)C2=O` [ETX1317] has an MIC [1] of 0.5 µg/mL, an MIC [2] of 0.25 µg/mL and an MIC [3] of 1 µg/mL. For the same compound, the MIC [4] was 16 µg/mL, the MIC [5] was 32 µg/mL and the MIC [6] was 0.5 µg/mL. The MIC [7] was 32 µg/mL, the predicted human half-life ([8]; T1/2 = ln 2*Vd,ss/CLtotal) was 1.2 to 1.6 h and the CL/F ([8]; F% 60) was 17.6 to 23.7 L/h. For the same compound, the V/F ([8]; F% 60) was 41 L, the CL/F ([8]; F% 70) was 15.1 to 20.3 L/h and the V/F ([8]; F% 70) was 35 L. The CL/F ([8]; F% 80) was 13.2 to 17.8 L/h, the V/F ([8]; F% 80) was 31 L and the “stability in liver microsomes” value [9] was “Good stability”.

Source: paper PMC7297445, “Pharmacokinetic/Pharmacodynamic Determination and Preclinical Pharmacokinetics of the β-Lactamase Inhibitor ETX1317 and Its Orally Available Prodrug ETX0282” (ACS Infectious Diseases, 2020)
